Assay results published in patent US20060286167A1, “Compositions and methods for the treatment of neurodegenerative diseases” (priority 2005, published 2006).
Where a name gives a salt, the structure may show the parent alone. Read-outs that look alike come from different tables or passages of the source.

System: SMN protein in SMA patient fibroblasts (GM03813)
Experiment: SMN cytoblot assay (SMN protein levels in SMA patient fibroblasts)
Assay type: cell-based, human
Description: One method for monitoring SMN protein levels in cells is through use of a cytoblot assay, in which cells are fixed and probed with an antibody against a target protein of interest. We have used a cytoblot assay to determine the concentration of SMN protein in SMA patient fibroblasts, and have identified small molecules that increase SMN protein concentration.
Using the cytoblot assay, we can clearly distinguish SMN protein levels in patient (GM03813) versus carrier fibroblast cells (GM03814), as shown in the FIGS. 1A and 1B.
• 1. Plate 50 μl per well of 300,000 cells/ml (15,000 cells per well) into Nunc white 384-well opaque-bottomed plates. • 2. Incubate plates at 37° C., 5% CO2 overnight. Day 2 • 1. Aspirate media from wells using Tecan plate washer. • 2. Fix cells by adding 20 μl/well of cold methanol (kept in −20° C. freezer). • 3. Incubate plates in 4° C. refrigerator for 10 minutes. • 4. Aspirate methanol using Tecan plate washer. • 5. Add 50 μl/well of primary Ab solution, (BD anti-SMN Ab diluted to 125 ng/ml in 10% fetal goat serum PBST), using multi-drop. • 6. Seal plates and incubate overnight at room temperature. Day 3 • 1. After 16-20 hrs incubation, wash plates with PBST 2× using Tecan plate washer. • 2. Add 50 μl of secondary Ab solution, (Santa Cruz goat anti-Mouse-HRP diluted to 67 ng/ml in 10% fetal goat serum PBST). • 3. Seal plates and incubate 2 hrs at room temperature. • 4. Wash plates with PBST 2× using Tecan plate washer. • 5. Add 50 μl/well 10% fetal goat serum PBST. • 6. Incubate in 4° C. refrigerator for 10 minutes. • 7. Aspirate plates using plate washer and add ECL luminescence solution, 20 μl/well. • 8. Measure luminescence on plate reader. Automated Scoring
We scored each compound based on the maximum signal-to-noise ratio (SNR) found among its dose curves. These scores are based on edge-corrected SMN data, using only plates that passed quality control. The untreated level on each plate was found by taking the median of the untreated wells, and for each treated well we calculated a log(T/U) ratio. Each curve was generated in triplicate on each plate, so each point on a compound's dose curve was obtained by determining the median for the replicate points. Each ratio thus has an error estimate from the scatter between the triplicate data points (1.5 times the median absolute deviation from the median). For each dose curve, we calculated the SNR for each data point log(T/U)/error, and chose the maximum point as our indicator of SMN induction activity. Since this is a signal-to-noise score, scores much greater than one indicate significant activity, assuming normal statistics. We decided to use a cutoff signal-to-noise ratio of 6. This selection represents a considerable enrichment towards visually-selected compounds. We identified 100 out of 2000 compounds producing scores >6. This included 13 of the 28 visual selections.

[1] = maximum signal-to-noise ratio log(T/U)/error among a compound's dose curves, SMN cytoblot, cutoff 6, column Scoring says Automated or Visual selection

CC(C)(S)C(N)C(=O)O (racemic) [dl-Penicillamine]
SNR [1]: 9.63

CC(C)(C)OC(=O)N1CCCNCC1 [1-Boc-homopiperazine]
SNR [1]: 6.66

CC1CCC(=CC(=O)O)CC1 (stereo not drawn) [2-(4-methyl010cyclohexylidene) acetic acid]
SNR [1]: 6.16

CCCCc1cccs1 [2-n-Butylthiophene]
SNR [1]: 8.96

COc1ccc(CC(C)=O)cc1OC [3,4-Dimethoxyphenylacetone]
SNR [1]: 7.25

C=CCCC(=O)O [4-Pentenoic acid]
SNR [1]: 10.8

CC(=O)Nc1c(I)cc(I)c(C(=O)O)c1I [Acetrizoate Sodium]
SNR [1]: 12.8

C=CCSSCC=C [Allyl Disulfide]
SNR [1]: 9.08

CN(C)c1nc(N(C)C)nc(N(C)C)n1 [Altretamine]
SNR [1]: 10.2

NCC[C@H](O)C(=O)N[C@@H]1C[C@H](N)[C@@H](O[C@H]2O[C@H](CN)[C@@H](O)[C@H](O)[C@H]2O)[C@H](O)[C@H]1O[C@H]1O[C@H](CO)[C@@H](O)[C@H](N)[C@H]1O.O=S(=O)(O)O.O=S(=O)(O)O [Amikacin Sulfate]
SNR [1]: 7.7

CCCC(CCC)C(=O)O[C@H]1C[C@H]2CC[C@@H](C1)[N+]2(C)C [Anisotropine Methylbromide]
SNR [1]: 6.43

O=C1O[C@H]([C@@H](O)CO)C(O)=C1O [Ascorbic Acid]
SNR [1]: 6.29

CC1(C)S[C@@H]2[C@H](NC(=O)[C@H](NC(=O)N3CCNC3=O)c3ccccc3)C(=O)N2[C@H]1C(=O)O [Azlocillin Sodium]
SNR [1]: 6.7

CCC(=O)OCC(=O)[C@@]1(OC(=O)CC)[C@@H](C)C[C@H]2[C@@H]3CCC4=CC(=O)C=C[C@]4(C)[C@@]3(Cl)[C@@H](O)C[C@@]21C [Beclomethasone Dipropionate]
SNR [1]: 6.27

CC(Cc1cccc(C(F)(F)F)c1)NCCOC(=O)c1ccccc1 (stereo not drawn) [Benfluorex Hydrochloride]
SNR [1]: 7.11

O=C(OCc1ccccc1)c1ccccc1 [Benzyl Benzoate]
SNR [1]: 9.42

CC1=C(/C=C/C(C)O)C(C)(C)CCC1 (stereo not drawn) [Beta-Ionol]
SNR [1]: 10.3

CC(C)NCC(O)COc1ccc(CCOCC2CC2)cc1 (stereo not drawn) [Betaxolol Hydrochloride]
SNR [1]: 7.21

CC(C[N+](C)(C)C)OC(N)=O (stereo not drawn) [Bethanechol Chloride]
SNR [1]: 9.26

CC(C)(Oc1ccc(CCNC(=O)c2ccc(Cl)cc2)cc1)C(=O)O [Bezafibrate]
SNR [1]: 7.38

CCCCC(CC)COC(=O)/C=C/C(=O)OCC(CC)CCCC (stereo not drawn) [Bis(2-Ethlyhexyl) Fumarate]
SNR [1]: 7.33

CS(=O)(=O)OCCCCOS(C)(=O)=O [Busulfan]
SNR [1]: 17.4

[Ca+2].[Cl-].[Cl-] [Calcium Chloride]
SNR: 7.63

CC1(C)S[C@@H]2[C@H](NC(=O)C(C(=O)O)c3ccccc3)C(=O)N2[C@H]1C(=O)O (stereo partly drawn) [Carbenicillin Disodium]
SNR [1]: 7.99

CN(C)CCC(O)(c1ccccc1)c1ccccc1Cl (stereo not drawn) [Chlophedianol Hydrochloride]
SNR [1]: 7.44

CN(C)[C@@H]1C(O)=C(C(N)=O)C(=O)[C@@]2(O)C(O)=C3C(=O)c4c(O)ccc(Cl)c4[C@@](C)(O)[C@H]3C[C@@H]12 [Chlortetracycline Hydrochloride]
SNR [1]: 10.4

CCn1nc(C(=O)O)c(=O)c2cc3c(cc21)OCO3 [Cinoxacin]
SNR [1]: 6

CC(C)=CCCC(C)CC=O (stereo not drawn) [Citronellal]
SNR [1]: 8.6

CN(CC(=O)O)C(=N)N [Creatine]
SNR [1]: 8.34

[Cl][Cu][Cl] [Cupric Chloride]
SNR [1]: 12.1

CC(=O)OCC(=O)[C@H]1CC[C@H]2[C@@H]3CCC4=CC(=O)CC[C@]4(C)[C@H]3CC[C@]12C [Desoxycorticosterone Acetate]
SNR [1]: 7.41

CCCC(CCC)C(=O)O [Divalproex Sodium]
SNR [1]: 6.59

CC(CCc1ccc(O)cc1)NCCc1ccc(O)c(O)c1 (stereo not drawn) [Dobutamine Hydrochloride]
SNR [1]: 6.47

O=C1Nc2ccc(Cl)cc2[C@@](C#CC2CC2)(C(F)(F)F)O1 [Efavirenz]
SNR [1]: 13.1

CCOC(=O)[C@H](CCc1ccccc1)N[C@@H](C)C(=O)N1CCC[C@H]1C(=O)O [Enalapril]
SNR [1]: 6.77

CNC[C@H](O)c1ccc(O)c(O)c1 [Epinephrine Bitartrate]
SNR [1]: 8.26

CCc1cc(C(N)=S)ccn1 [Ethionamide]
SNR [1]: 14

CCN(CC)C(C)CN1c2ccccc2Sc2ccccc21 (stereo not drawn) [Ethopropazine Hydrochloride]
SNR [1]: 9.61

C[N+]1(CCC(C(N)=O)(c2ccccc2)c2ccccc2)CCCCC1 [Fenpiverinium Bromide]
SNR [1]: 7.49

CC(=O)OCC(=O)[C@@]12OC(C)(C)O[C@@H]1C[C@H]1[C@@H]3C[C@H](F)C4=CC(=O)C=C[C@]4(C)[C@@]3(F)[C@@H](O)C[C@@]12C [Fluocinonide]
SNR [1]: 7.01

O=C(O)c1ccccc1OP(=O)(O)O [Fosfosal]
SNR [1]: 6.77

NC[C@@H]1O[C@H](O[C@H]2[C@@H](O)[C@H](O[C@@H]3[C@@H](O)[C@H](N)C[C@H](N)[C@H]3O[C@H]3O[C@H](CN)[C@@H](O)[C@H](O)[C@H]3N)O[C@@H]2CO)[C@H](N)[C@@H](O)[C@@H]1O [Framycetin]
SNR [1]: 13.3

NCC1(CC(=O)O)CCCCC1 [Gabapentin]
SNR [1]: 6.84

CC(O)CN1CCN(CC(=O)[O-])CCN(CC(=O)[O-])CCN(CC(=O)[O-])CC1.[Gd+3] (stereo not drawn) [Gadoteridol]
SNR [1]: 6.54

CC[N+](CC)(CC)CCOc1cccc(OCC[N+](CC)(CC)CC)c1OCC[N+](CC)(CC)CC [Gallamine Triethiodide]
SNR [1]: 15.4

CC(=O)OC/C=C(\C)CCC=C(C)C [Geranyl Acetate]
SNR [1]: 6.71

N=C(N)NC(=O)Cc1c(Cl)cccc1Cl [Guanfacine Hydrochloride, (N-aminoiminomethyl)-2,6-dichlorobenzeneacetamide]
SNR [1]: 7.24

CNCCNS(=O)(=O)c1cccc2cnccc12 [H-8]
SNR [1]: 9.52

CC(C)CCCC(C)CCCC(C)CCCCC(C)CCCC(C)CCCC(C)C (stereo not drawn) [Hexamethyltetracosane]
SNR [1]: 6.64

C=C(C)C1CCC(C)CC1OC(C)=O (stereo not drawn) [Isopulegol acetate]
SNR [1]: 11.4

COc1c2occc2c(OC)c2c(=O)cc(C)oc12 [Khellin]
SNR [1]: 6.73

CS(=N)(=O)CC[C@H](N)C(=O)O (stereo partly drawn) [L-Methionine Sulfoximine]
SNR: 7.29

O=C(O)[C@H](O)[C@@H](O)C(=O)O [L-Tartaric acid]
SNR [1]: 6.92

OC[C@@H](O)[C@@H](O[C@@H]1O[C@H](CO)[C@H](O)[C@H](O)[C@H]1O)[C@H](O)[C@@H](O)CO [Lactitol]
SNR [1]: 15.8

CC[C@@H](C(N)=O)N1CCCC1=O [Levetiracetam]
SNR [1]: 7.74

CN1CCN(C2=Nc3ccccc3Oc3ccc(Cl)cc32)CC1 [Loxapine Hydrochloride]
SNR [1]: 10.1

O=S(=O)([O-])[O-].[Mn+2] [Manganese Sulfate]
SNR: 10.3

CC1CCC(C(C)C)C(O)C1 (stereo not drawn) [Menthol]
SNR [1]: 7.87

C=N[C@@H](C(=O)N[C@@H]1C(=O)N2[C@@H]1SC(C)(C)[C@@H]2C(=O)O)c1ccccc1 [Metampicillin]
SNR [1]: 9.95

CCCCC/C=C\C/C=C\CCCCCCCC(=O)OC [Methyl Linoleate]
SNR [1]: 10.1

CCCCCCCC/C=C\CCCCCCCC(=O)OC [Methyl Oleate]
SNR [1]: 7.89

CCCCCC/C=C\CCCCCCCC(=O)OC [Methyl Palmitoleate]
SNR [1]: 9.63

CC(=O)Oc1cc(C(C)C)c(OCCN(C)C)cc1C [Moxisylyte Hydrochloride]
SNR [1]: 14.3

O=C(N/N=C/c1ccc([N+](=O)[O-])o1)c1ccc(O)cc1 [Nifuroxazide]
SNR [1]: 6.96

CC(=O)N1C[C@H](O)C[C@H]1C(=O)O [Oxaceprol]
SNR [1]: 10.6

C=CCOc1ccccc1OCC(O)CNC(C)C (stereo not drawn) [Oxprenolol Hydrochloride]
SNR [1]: 6.52

C#CCN(C)Cc1ccccc1 [Pargyline]
SNR [1]: 6.52

NC[C@@H]1O[C@H](O[C@H]2[C@@H](O)[C@H](O[C@@H]3[C@@H](O)[C@H](N)C[C@H](N)[C@H]3O[C@H]3O[C@H](CO)[C@@H](O)[C@H](O)[C@H]3N)O[C@@H]2CO)[C@H](N)[C@@H](O)[C@@H]1O [Paromomycin Sulfate]
SNR [1]: 11

C[C@H]1COc2c(C3(N)CC3)c(F)cc3c(=O)c(C(=O)O)cn1c23 [Pazufloxacin]
SNR [1]: 7.83
